Values joined by “and” are separate entries in the source; they are usually repeats but may differ in a detail not shown here. Equal values may be shown once. Inconclusive results are not listed. Active and inactive are the calls of the source.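 How the source made its calls: active means fitted half-maximal concentration of signal decrease at or below twice the sample's top tested concentration; inconclusive means flat curve between -70 and -30 percent, or poor fit; inactive means flat within 30 percent, signal rise, or potency above limit.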
Target: T. gondii ME49Luc in IFN-y HeLa, luciferase, 72 h
Test: T. gondii growth inhibition with IFN-gamma, dose response, cell-based, ME49Luc, HeLa, luciferase, 72 h (AID 1259418)

Compound	AC50
Cc1ccccc1S(=O)(=O)N1CCCCN2[C@H](C1)[C@H](c1ccc(C#CCN(C)C)cc1)[C@@H]2CO	18.6 µM
O=C1CNC[C@H]2[C@@H](c3ccc(C#Cc4cccnc4)cc3)[C@@H](CO)N12	26.8 µM
Cc1ccc(CNC(=O)CC2Nc3c4ccccc4nc(=S)n3C2=O)cc1 (stereo not given)	31.5 µM
O=C(CCC1N=C2c3ccccc3N=C(SCc3cc(=O)n4cc(Cl)ccc4n3)N2C1=O)NC1CCCCC1 (stereo not given)	> 39 µM (inactive)
Cc1nc(-c2cccc(-c3noc(C(=O)NCCCN4CCC(C)CC4)n3)c2)cs1	> 39 µM (inactive)
COc1ccc(N(Cc2nc(-c3ccccc3OC)oc2C)S(=O)(=O)c2ccc(OC)cc2)cc1	17.9 µM
CCc1ccccc1S(=O)(=O)N1CCc2nc(-c3ccc(OC)cc3)sc2C1	7.8 µM and 14.9 µM
Cc1cccc(-c2nc(CN(c3ccccc3)S(=O)(=O)c3ccccc3)c(C)o2)c1	5.9 µM and 16.3 µM
O=C(CC1Nc2c3ccccc3nc(=S)n2C1=O)NCc1ccc2c(c1)OCO2 (stereo not given)	> 39 µM (inactive)
O=C(c1cnccn1)N1CC(=O)N2[C@H](CO)[C@H](c3ccc(-c4cccc(F)c4)cc3)[C@H]2C1	13.9 µM and 25 µM
O=S(=O)(c1ccc(Cl)s1)N1CCC2(CC1)NCCN=C2NCc1cc(F)cc(F)c1	18 µM
C[C@H]1CN([C@@H](C)CO)C(=O)c2cccc(NS(=O)(=O)c3ccc(F)cc3)c2O[C@H]1CN(C)Cc1ccc(Cl)c(Cl)c1	19.2 µM and 11.7 µM
CCCCN(C)C(=O)c1cnc(-c2noc3cc(NCC4CC4)ccc23)s1	6.44 µM and 21.7 µM
Cc1ccc2c(c1)c(Cn1cc(-c3sccc3C)nn1)nn2C	20.2 µM and 28.7 µM
COc1cccc(-c2ccc([C@H]3[C@H]4CN(C(=O)Cc5ccncc5)CCCCN4[C@H]3CO)cc2)c1	> 39 µM (inactive)
Cc1ccc(CSC2=Nc3ccccc3C3=NC(CCC(=O)NCc4cccs4)C(=O)N23)cc1 (stereo not given)	17.5 µM
Cc1ccc(-c2cc(O)c3c(c2)CN(C(=O)CCN2CCCO2)CCO3)s1	13.5 µM
Cc1ccccc1S(=O)(=O)N1C[C@@H]2N[C@H](C1)C2c1ccc(-c2cccc(C#N)c2)cc1 (stereo not given in full)	15.6 µM and 2.57 µM and 18.7 µM
Cc1cccc(-c2nc(Cn3nnc(-c4nc(-c5cccs5)no4)c3C)c(C)o2)c1	> 39 µM (inactive)
Cc1nc(CCNC(=O)[C@H]2CCCN2S(=O)(=O)c2ccccc2)cs1	32.3 µM
O=S(=O)(c1ccccc1)N1CCCCN2[C@@H](CO)[C@@H](c3ccc(C#CC4CCCC4)cc3)[C@@H]2C1	17.5 µM and 6.86 µM
CS(=O)(=O)N1CSC[C@@H]1C(=O)NCCc1csc(-c2ccccc2)n1	30.8 µM
O=C(Nc1cccc(F)c1)N1CCCCN2[C@@H](CO)[C@H](c3ccc(C#Cc4cccnc4)cc3)[C@@H]2C1	4.48 µM

Compound	AC50
Cc1ccccc1CN1C[C@@H]2c3nc(N4CCCC(C)C4)ncc3CS(=O)(=O)[C@H]2C1 (stereo not given in full)	24.5 µM and 4.74 µM
COc1ccccc1CN1CC[C@@H]2[C@H]1c1cc(-c3cccc(C(=O)N(C)C)c3)ccc1N[C@@H]2CO	19.6 µM
COCC(=O)N1[C@H](C#N)[C@H](c2ccc(C#Cc3ccccc3F)cc2)[C@@H]1CO	> 39 µM (inactive)
COc1ccc(S(=O)(=O)N(C)C[C@H]2Oc3c(NC(=O)c4nc5ccccc5s4)cccc3C(=O)N([C@@H](C)CO)C[C@H]2C)cc1	21.8 µM
Clc1ccc(-c2nc(N3CCC(N4CCCCC4)CC3)c3ccccc3n2)cc1	18.4 µM
CCOc1ccccc1-n1c(C(C)N2CCN(C(=O)COc3ccc(Cl)cc3)CC2)nc2ccccc2c1=O (stereo not given)	7.75 µM
O=C(CC1N=C2c3ccccc3N=C(SCc3ccc(F)cc3)N2C1=O)NCCc1ccccc1 (stereo not given)	4.59 µM
Cc1cc(Nc2cc(N3CCN(C)CC3)nc(Sc3ccc(NC(=O)C4CC4)cc3)n2)n[nH]1	13.8 µM
N#Cc1ccc(-c2ccc([C@@H]3[C@@H]4CN(C(=O)Nc5ccc6c(c5)OCO6)C[C@H]3N4)cc2)cc1	17.9 µM
COc1ccc(-c2nc(C)c(-c3ccc(SCc4cccc(C(F)(F)F)c4)nn3)s2)cc1	> 39 µM (inactive)
CC(C)Cc1ccc(S(=O)(=O)N2CCC3(CC2)NCCN=C3NCc2ccc(Cl)cc2)cc1	12.4 µM
COc1ccc(S(=O)(=O)N(Cc2nc(-c3cccc(C)c3)oc2C)c2ccccc2OC)cc1	6 µM
CCOc1ccccc1-c1nc(CN(c2cccc(OC)c2)S(=O)(=O)c2ccccc2)c(C)o1	> 39 µM (inactive)
O=C(c1ccc(F)cc1)N1CC(=O)N2[C@@H](CO)[C@H](c3ccc(C#CCC4CCCC4)cc3)[C@@H]2C1	17.9 µM and 10.9 µM
Cc1ccc(-c2nc(CN3CCN(C(=O)Nc4ccc(F)cc4)CC3)c(C)o2)cc1	33.3 µM
O=C(COc1ccc(F)cc1)N1CCC2(CC1)Nc1ccc(Cl)cc1-n1cccc12	17 µM
O=C(Nc1c(C(=O)NCc2cccnc2)[nH]c2ccccc12)c1ccc(Cl)cc1	21.2 µM
Fc1cccc(CSc2nc(NC3CCCCC3)c3ccccc3n2)c1	> 39 µM (inactive)
Cc1ccc(CNC2=NCCNC23CCN(S(=O)(=O)c2ccc(Cl)s2)CC3)cc1	5.08 µM
N#C[C@H]1[C@H](c2ccc(-c3cccc(F)c3)cc2)[C@H](CO)N1C(=O)NC1CCCC1	18.9 µM
CC(C)(C)CC(C)(C)c1ccc(OCCOCC[N+](C)(C)Cc2ccccc2)cc1	15.6 µM
COc1ccccc1-c1nc(C)c(-c2ccc(SCc3ccccc3Cl)nn2)s1	> 39 µM (inactive)
CCCCNC(=O)CCC1N=C2c3ccccc3N=C(SCc3cccc(Cl)c3)N2C1=O (stereo not given)	14.6 µM

Compound	AC50
CCOc1ccc(-c2nc(CN3CCN(C(=O)Nc4cccc(Cl)c4)CC3)c(C)o2)cc1	17.1 µM
COCC(=O)N(C[C@H]1N[C@H](CO)[C@@H]1c1ccc(C2=CCCC2)cc1)C1CCCC1	16.3 µM
CS(=O)(=O)N1CC(=O)N2[C@H](C1)[C@@H](c1ccc(C#CCC3CCCC3)cc1)[C@@H]2CO	19.2 µM
CCc1c(C)sc2c1CCN(Cc1nc(-c3cccc(OC)c3OC)oc1C)C2c1ccccc1 (stereo not given)	15.7 µM
CN1C(=O)CCc2cc(NC(=O)C(F)(F)F)ccc21	17.1 µM
O=C(NCCc1csc(-c2ccccc2)n1)C1CCN(C(=O)Cc2cccc(F)c2)CC1	2.76 µM
C[C@H](CO)N1C[C@H](C)[C@H](CN(C)C(=O)c2cc(Cl)cc(Cl)c2)OCc2ccccc2-c2c(n(C)c3ccccc23)C1=O	9.22 µM
O=C(NC1CCCC1)N1CCCCN2[C@H](CO)[C@H](c3ccc(-c4cccnc4)cc3)[C@H]2C1	24.1 µM
COc1ccc(OC)c(S(=O)(=O)N2CCc3c([nH]c4ccccc34)C2c2cccc(F)c2)c1 (stereo not given)	> 39 µM (inactive)
CCCNC(=O)N1[C@H](C#N)[C@H](c2ccc(-c3ccccc3F)cc2)[C@@H]1CO	3.6 µM
O=C(NCCc1csc(-c2ccccc2)n1)[C@H]1CCCN1C(=O)c1ccccc1	36.5 µM
CC[C@H]1CN2CCC1C[C@@H]2[C@@H](O)c1ccnc2ccc(OC)cc12 (stereo not given in full)	2.25 µM
CC(C)Cc1ccc(S(=O)(=O)N2CCC[C@@H]2C(=O)NCCc2csc(-c3ccccc3)n2)cc1	12.4 µM
N#Cc1ccc(-c2ccc(C3[C@@H]4CN(S(=O)(=O)c5ccc(F)cc5)C[C@H]3N4)cc2)cc1 (stereo not given in full)	12.1 µM and 13.8 µM
O=S(=O)(c1cccs1)N1CCC2(CC1)NCCN=C2NCc1ccc(Cl)cc1	> 39 µM (inactive)
CCc1cnc(N2[C@H](C#N)[C@H](c3ccc(-c4cccc(F)c4)cc3)[C@H]2CO)s1	21.3 µM
COc1cc(NC(=O)Nc2ccc(-c3nc(-c4cc(C)ccc4C)co3)cc2)cc(OC)c1	9.46 µM
Clc1ccccc1-c1nc(NCCCN2CCN(c3ccccc3)CC2)c2ccccc2n1	> 39 µM (inactive)
CN1C(=O)c2cc(NC(=O)c3cccc(F)c3)ccc2OC[C@H]2O[C@@H](CC(=O)NCC3CCCCC3)CC[C@H]21	18.6 µM and 10.5 µM and 24.5 µM
COc1ccccc1NC(=O)N1C[C@H](O)COC[C@@H]2O[C@@H](CC(=O)N3CCC(Cc4ccccc4)CC3)CC[C@H]21	22.9 µM and > 39 µM (inactive)
CN1C(=O)c2cc(NC(=O)c3cccc(F)c3)ccc2OC[C@@H]2O[C@H](CC(=O)NCC3CCCCC3)CC[C@@H]21	18.6 µM and 22.1 µM
Cc1oc(-c2cccc(Cl)c2)nc1CN1CCN(C(=O)Nc2ccc(F)cc2)CC1	24.1 µM
CCCC#Cc1ccc([C@H]2[C@H](CO)N3C(=O)CN(C(=O)Nc4cccc(F)c4)C[C@@H]23)cc1	10.4 µM

Compound	AC50
Cc1cc(C)c(S(=O)(=O)N2CCC3(CC2)NCCN=C3NC2CCCCC2)cc1C	6.34 µM
CCc1c(C)sc2c1CCN(Cc1nc(-c3cc(C)ccc3C)oc1C)C2c1ccccc1 (stereo not given)	9.45 µM
O=C(NCCc1csc(-c2ccccc2)n1)C1CCN(S(=O)(=O)c2ccc(F)cc2)CC1	11.4 µM
CCOc1ccc(CC(=O)N2CCC3(CC2)Nc2cc(F)ccc2-n2cccc23)cc1OCC	> 39 µM (inactive)
COCC(=O)Nc1ccc(-c2nc(-c3cc(C)ccc3C)co2)cc1	> 39 µM (inactive)
O=C(Cc1ccccn1)N1CC(=O)N2[C@@H](CO)[C@@H](c3ccc(C#CCC4CCCC4)cc3)[C@@H]2C1	13.2 µM
Cc1cccc(C(=O)Nc2c(C(=O)N3CCN(c4ccccn4)CC3)[nH]c3ccccc23)c1	> 39 µM (inactive)
CCCNC(=O)[C@H]1[C@H](CO)[C@H]2Cn3c(ccc(C4=CCCCC4)c3=O)[C@H]2N1Cc1ccccc1F	8.99 µM
COC[C@]12CCC[C@@H]1CN(S(=O)(=O)c1cccc(OC)c1)C2	36.2 µM
COc1ccc(-c2nc(N3CCC(N4CCCCC4)CC3)c3ccccc3n2)cc1	10.6 µM
COc1ccccc1-c1nc(CN(c2ccccc2OC)S(=O)(=O)c2ccccc2C)c(C)o1	6.87 µM
Clc1ccc(-c2nc(N3CCC(c4ccccc4)C3)c3ccccc3n2)cc1 (stereo not given)	32.4 µM
CCOC(=O)c1nn(Cc2ccccc2)c2c1CN(C(=O)CN1CC(c3ccccc3)CC1=O)CC2 (stereo not given)	> 39 µM (inactive)
CC(C)CCN1Cc2c(C(=O)NC3CCCCC3)ncn2-c2ccccc2S1(=O)=O	20.6 µM
NC(N)=N/N=C/c1c(Cl)cccc1Cl	19.7 µM
O=C(Nc1ccc(F)cc1)N1CC(=O)N2[C@@H](CO)[C@@H](c3ccc(-c4cccc(F)c4)cc3)[C@@H]2C1	18.5 µM
CCOc1ccc(-c2nc(CN3CCN(C(=O)Nc4ccc(Cl)cc4)CC3)c(C)o2)cc1	5.17 µM
Fc1ccccc1CSc1nc(Nc2ccc3c(c2)OCO3)c2ccccc2n1	33.2 µM
O=S(=O)(c1ccccc1)N1CCc2c([nH]c3ccccc23)C1c1cc(F)ccc1F (stereo not given)	12.6 µM
O=C(Nc1ccc(F)cc1)N1CC(=O)N2[C@H](C1)[C@H](c1ccc(-c3cccc(F)c3)cc1)[C@@H]2CO	17.9 µM
CCOc1ccccc1-c1nc(CN(c2ccccc2OC)S(=O)(=O)c2ccccc2)c(C)o1	7.68 µM
